Data: ChEMBL document CHEMBL1201862, “PubChem BioAssay data set” (2004)
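Each compound was tested at five concentrations against cells in 96-well plates for 48 hours. Abbreviation: GI50, concentration required for 50% inhibition of growth.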 Active and inactive are the calls of the source. Rule as the data show it: active = GI50 up to about 1.1 µM and inactive = higher.

Key:
Assay in all cases: growth of human tumour cells (NCI), 48 h
[1] = test system: 786-0
[2] = test system: A549
[3] = test system: ACHN
[4] = test system: CAKI-1
[5] = test system: CCRF-CEM
[6] = test system: COLO 205
[7] = test system: DLD-1
[8] = test system: DMS-273
[9] = test system: EKVX
[10] = test system: HCC 2998
[11] = test system: HCT-116
[12] = test system: HCT-15
[13] = test system: HL-60
[14] = test system: HOP-18
[15] = test system: HOP-62
[16] = test system: HOP-92
[17] = test system: HT-29
[18] = test system: IGROV-1
[19] = test system: K562
[20] = test system: KM-20L2
[21] = test system: KM12
[22] = test system: LOX IMVI
[23] = test system: LXFL 529
[24] = test system: M14
[25] = test system: M19-MEL
[26] = test system: MOLT-4
[27] = test system: Malme-3M
[28] = test system: NCI-H226
[29] = test system: NCI-H23
[30] = test system: NCI-H460
[31] = test system: OVCAR-3
[32] = test system: OVCAR-4
[33] = test system: OVCAR-5
[34] = test system: OVCAR-8
[35] = test system: RPMI-8226
[36] = test system: RXF 393
[37] = test system: RXF 631
[38] = test system: SF-268
[39] = test system: SF-295
[40] = test system: SF-539
[41] = test system: SK-MEL-28
[42] = test system: SK-MEL-2
[43] = test system: SK-MEL-5
[44] = test system: SK-OV-3
[45] = test system: SN12C
[46] = test system: SNB-19
[47] = test system: SNB-75
[48] = test system: SNB-78
[49] = test system: SR
[50] = test system: SW-620
[51] = test system: TK-10
[52] = test system: U-251
[53] = test system: UACC-257
[54] = test system: UACC-62
[55] = test system: UO-31
[56] = test system: XF498
[57] = test system: A498
[58] = test system: BT-549
[59] = test system: DU-145
[60] = test system: Hs-578T
[61] = test system: MCF7
[62] = test system: MDA-MB-231
[63] = test system: MDA-MB-435
[64] = test system: MDA-N
[65] = test system: NCI-H522
[66] = test system: NCI/ADR-RES
[67] = test system: PC-3
[68] = test system: T47D

## O=c1c2ccccc2sc2nc(O)nn12
[1]
  GI50: > 100 µM (inactive)
[2]
  GI50: > 100 µM (inactive)
[3]
  GI50: > 100 µM (inactive)
[4]
  GI50: > 100 µM (inactive)
[5]
  GI50: > 100 µM (inactive)
[6]
  GI50: > 100 µM (inactive)
[7]
  GI50: > 100 µM (inactive)
[8]
  GI50: > 100 µM (inactive)
[9]
  GI50: > 100 µM (inactive)
[10]
  GI50: > 100 µM (inactive)
[11]
  GI50: > 100 µM (inactive)
[12]
  GI50: > 100 µM
[13]
  GI50: > 100 µM (inactive)
[14]
  GI50: > 100 µM (inactive)
[15]
  GI50: > 100 µM (inactive)
[16]
  GI50: > 100 µM (inactive)
[17]
  GI50: > 100 µM (inactive)
[18]
  GI50: > 100 µM (inactive)
[19]
  GI50: > 100 µM (inactive)
[20]
  GI50: > 100 µM (inactive)
[21]
  GI50: > 100 µM (inactive)
[22]
  GI50: > 100 µM (inactive)
[23]
  GI50: > 100 µM (inactive)
[24]
  GI50: > 100 µM (inactive)
[25]
  GI50: > 100 µM (inactive)
[26]
  GI50: > 100 µM (inactive)
[27]
  GI50: > 100 µM (inactive)
[28]
  GI50: > 100 µM (inactive)
[29]
  GI50: > 100 µM (inactive)
[30]
  GI50: > 100 µM (inactive)
[31]
  GI50: > 100 µM (inactive)
[32]
  GI50: > 100 µM (inactive)
[33]
  GI50: > 100 µM (inactive)
[34]
  GI50: > 100 µM (inactive)
[35]
  GI50: > 100 µM (inactive)
[36]
  GI50: > 100 µM (inactive)
[37]
  GI50: > 100 µM (inactive)
[38]
  GI50: > 100 µM (inactive)
[39]
  GI50: > 100 µM (inactive)
[40]
  GI50: > 100 µM (inactive)
[41]
  GI50: > 100 µM (inactive)
[42]
  GI50: > 100 µM (inactive)
[43]
  GI50: > 100 µM (inactive)
[44]
  GI50: > 100 µM (inactive)
[45]
  GI50: > 100 µM (inactive)
[46]
  GI50: > 100 µM (inactive)
[47]
  GI50: > 100 µM (inactive)
[48]
  GI50: > 100 µM (inactive)
[49]
  GI50: > 100 µM (inactive)
[50]
  GI50: > 100 µM (inactive)
[51]
  GI50: > 100 µM (inactive)
[52]
  GI50: > 100 µM (inactive)
[53]
  GI50: > 100 µM (inactive)
[54]
  GI50: > 100 µM (inactive)
[55]
  GI50: > 100 µM (inactive)
[56]
  GI50: > 100 µM (inactive)

## O=C1C2CCN(CC2)C1CN1CCOCC1 (centres undefined)
[1]
  GI50: 1.93 µM (inactive)
[57]
  GI50: 16.8 µM (inactive)
[2]
  GI50: 19.7 µM (inactive)
[3]
  GI50: 2.01 µM (inactive)
[58]
  GI50: 2.28 µM (inactive)
[4]
  GI50: 2.16 µM (inactive)
[5]
  GI50: 6.98 µM (inactive)
[6]
  GI50: 1.79 µM (inactive)
[7]
  GI50: 1.65 µM (inactive)
[8]
  GI50: 11.8 µM (inactive)
[59]
  GI50: 6.47 µM (inactive)
[9]
  GI50: 17.8 µM (inactive)
[10]
  GI50: 15.7 µM (inactive)
[11]
  GI50: 1.87 µM (inactive)
[12]
  GI50: 2.18 µM
[13]
  GI50: 2.74 µM (inactive)
[14]
  GI50: 7.59 µM (inactive)
[15]
  GI50: 18.5 µM (inactive)
[16]
  GI50: 1.9 µM (inactive)
[17]
  GI50: 7.73 µM (inactive)
[60]
  GI50: 29 µM (inactive)
[18]
  GI50: 19.3 µM (inactive)
[19]
  GI50: 6.73 µM (inactive)
[20]
  GI50: 18.2 µM (inactive)
[21]
  GI50: 16.6 µM (inactive)
[22]
  GI50: 5.16 µM (inactive)
[23]
  GI50: 2 µM (inactive)
[24]
  GI50: 2.96 µM (inactive)
[25]
  GI50: 13.4 µM (inactive)
[61]
  GI50: 2.9 µM (inactive)
[62]
  GI50: 24.7 µM (inactive)
[63]
  GI50: 15.5 µM (inactive)
[64]
  GI50: 5.75 µM (inactive)
[26]
  GI50: 2.33 µM (inactive)
[27]
  GI50: 1.8 µM (inactive)
[28]
  GI50: 13.6 µM (inactive)
[29]
  GI50: 9.95 µM (inactive)
[30]
  GI50: 17.7 µM (inactive)
[65]
  GI50: 0.689 µM (active)
[66]
  GI50: 1.96 µM (inactive)
[31]
  GI50: 2.14 µM (inactive)
[32]
  GI50: 4.04 µM (inactive)
[33]
  GI50: 5.53 µM (inactive)
[34]
  GI50: 5.02 µM (inactive)
[67]
  GI50: 20 µM (inactive)
[35]
  GI50: 2.13 µM (inactive)
[36]
  GI50: 2.25 µM (inactive)
[37]
  GI50: 16.9 µM (inactive)
[38]
  GI50: 13.7 µM (inactive)
[39]
  GI50: 19.4 µM (inactive)
[40]
  GI50: 15.4 µM (inactive)
[41]
  GI50: 3.79 µM (inactive)
[42]
  GI50: 17.5 µM (inactive)
[43]
  GI50: 17.1 µM (inactive)
[44]
  GI50: 17.2 µM (inactive)
[45]
  GI50: 4.05 µM (inactive)
[46]
  GI50: 18.7 µM (inactive)
[47]
  GI50: 17 µM (inactive)
[48]
  GI50: 20.7 µM (inactive)
[49]
  GI50: 6.1 µM (inactive)
[50]
  GI50: 1.72 µM (inactive)
[68]
  GI50: 1.92 µM (inactive)
[51]
  GI50: 6.82 µM (inactive)
[52]
  GI50: 11 µM (inactive)
[53]
  GI50: 4.33 µM (inactive)
[54]
  GI50: 16.1 µM (inactive)
[55]
  GI50: 3.84 µM (inactive)
[56]
  GI50: 5.05 µM (inactive)
